The text below walks through data of patent US5473039A, “Polypeptide analogs of apolipoprotein E, diagnostic systems and methods using the analogs” (The Scripps Research Institute, priority 1991, dated 1995).

Test [1] concerns Human peripheral blood mononuclear (PBM) cells. Briefly: PHA-stimulated lymphocyte proliferation (3H-thymidine uptake). To be noted: Example 17. The format is cell-based. The text has this: A lymphocyte cell culture system was used to examine the ability of various polypeptides and conjugates to mimic the ability of Apo E to inhibit lymphocyte differentiation as evidence by proliferation.
Human peripheral blood mononuclear (PBM) cells are isolated from whole blood on a Ficoll-Hypaque gradient. The collected PBMs are washed three times with fresh medium (RPMI-1640 plus 5% fetal bovine serum, glutamine, penicillin, streptomycin and HEPES buffer). After washing, the cells are counted and set at a density of 1×10^5 /ml. For culture, 0.2 ml of the cells are plated per well of a 96-well microtiter plate. The peptide or conjugate is added to the wells in a 50 ul volume that can be either filter or UV sterilized. The typical timing for this experiment is to expose the cells to the Apo E polypeptide or self-conjugate over night. PHA, the mitogen that stimulates lymphocyte growth and proliferation, is added the next day. Forty-eight hours after the addition of PHA, 1 uCi of ^3 H-thymidine is added per well in a 1 ul volume and 18-24 hours later the cells are harvested on a mash. The mash cell harvester functions to collect the cells on filter paper where they are washed with buffer to remove free ^3 H-thymidine. The filter papers are dried, put into scintillation vials with scintillation cocktail and the B emissions obtained. Each data point collected represents the average thymidine uptake in four wells, and the standard error was less than 10% for all data points.
Various concentrations of various Apo E peptide were added to cultures that contained 8×10^5 peripheral blood mononuclear cells per ml. The cells were cultured at 37C and RPMI with 5% serum. All cells were exposed to PHA at 24 hours, labeled with 3H-thymidine at 72 hours and harvested at 90 hours. The counts per minute (cpm) of 3H-thymidine in the harvested cells was measured, and the data are expressed as the mean of four wells per treatment as a measure of thymidine uptake (x 1000 cpm). The standard deviation was less than 10% for all means.

The test system of another test is scavenger receptor. Nature of the test: 125I-aLDL degradation by PMA-stimulated THP-1 cells. The test is classed as cell-based, human. As for the experimental part:
To verify that the inhibition of LDL degradation was specific for the LDL receptor, the effect of the tandem peptide on scavenger receptor processing of acetylated LDL (aLDL) was tested.
THP-1 cells (5×10^5 in 1.0ml of DMEM medium per 16 mm culture dish) were stimulated with PMA (10^-7 M) for 4 days. LDL was acetylated (Hara, H. et al., Biochem. Biophys. Res. Comm., 146(2):802-808, 1987) and then radio-labeled as described in Example 8 to a specific activity of 300-500 cpm/ng resulting in ^125 I-aLDL that was greater than 99% precipitable by 10% TCA. The cells were washed with PBS and the assay performed in DMEM medium supplemented with 1% Nutridoma-HU plus 25 μg/ml of ^125 I-aLDL. After 5 hr at 37° C., the supernatants were removed from the wells and extracted with 10% TCA. The B/B0 ratios were analyzed as described above. The results are depicted in FIG. 1B.

Turning to `CC(C)C[C@H](NC(=O)[C@H](CC(=O)O)NC(=O)[C@H](CC(=O)O)NC(=O)[C@H](C)NC(=O)[C@H](CC(=O)O)NC(=O)[C@H](CCCNC(=N)N)NC(=O)[C@H](CC(C)C)NC(=O)[C@H](CC(C)C)NC(=O)[C@H](CCCNC(=N)N)NC(=O)[C@H](CCCCN)NC(=O)[C@H](CCCNC(=N)N)NC(=O)[C@H](CC(C)C)NC(=O)[C@H](CCCCN)NC(=O)[C@H](CCCNC(=N)N)NC(=O)[C@H](CC(C)C)NC(=O)[C@H](CC(C)C)NC(=O)[C@H](CC(=O)O)NC(=O)[C@H](CC(=O)O)NC(=O)[C@H](C)NC(=O)[C@H](CC(=O)O)NC(=O)[C@H](CCCNC(=N)N)NC(=O)[C@H](CC(C)C)NC(=O)[C@H](CC(C)C)NC(=O)[C@H](CCCNC(=N)N)NC(=O)[C@H](CCCCN)NC(=O)[C@H](CCCNC(=N)N)NC(=O)[C@H](CC(C)C)NC(=O)[C@H](CCCCN)NC(=O)[C@H](CCCNC(=N)N)NC(=O)[C@@H](N)CC(C)C)C(=O)O` [p(141-155)2], the “ED50 or dose of peptide required to inhibit lymphocyte proliferation 50%” value in test [1] is 20 µM. Moreover, the “effect on 125I-aLDL degradation” value is given as “no effect” in the test on scavenger receptor (listed as tandem apo E peptide) and “Neither LDL or tandem peptide inhibited” with scavenger receptor (listed as tandem peptide).
